Source: patent US8367666B2 (priority 2004, dated 2013)
Where two headings read alike, the source gives them in different places.

Legend:
CB2 receptor [1] = target: T1, CB2 receptor (Homo sapiens, UniProt P34972); experiment: cAMP formation inhibition experiment through a cannabinoid receptor (forskolin stimulation), CB2; assay type: cell-based; design: expressed in transfected cells; host or cells: CHO cells
[2] = test system: scratching action induced by Compound 48/80; experiment: Anti-pruritic activity test by application (Compound 48/80 scratching); assay type: in vivo, mouse (Crj:CD-1 (ICR)); conditions: Mus musculus, topical, read-out: Itching inhibition ratio % (Concentration %)
Protocol: 1) Preparation of the compound and the reagent: The compound being tested was dissolved in acetone (SIGMA). Compound 48/80 (SIGMA) was dissolved in physiological saline (m by Otsuka Pharmaceutical Co., Ltd.) so as to be 60 μg/mL.
2) Animals: Female Crj: CD-1 (ICR) mice of 6 to 10 age in week (Japan Charles Liver) were used as laboratory animals. The animals were fed in the barrier breeding room where […] in room temperature, 30 to 70% in humidity, and the light and shade condition existed every 12 hours and feed (CE-2: Japan Crea) and the drinking water were freely taken. The hair of dorsa (from the cervical region of the back to the center of the back) of the animals were cut with a hair clipper two days or more before the anti-pruritic activity is evaluated, those with no wound, rubefaction, and thickening of the skin on the dehaired part were chosen and supplied to the experiment on the day of the evaluation. 3) Evaluation procedures: The acetone solution of the compound being tested was applied by 50 μL on the dehaired parts of the mice with a pipeter. On the mice of the control group, 50 μL of acetone was applied. The 15 minutes later, 50 μL (corresponding to 3 μg) of Compound 48/80 solution was injected intradermally in the compound applied parts with the use of a injector (Terumo Corporation), the mice were individually put in five observation cages made of acrylate resin at once, and the scratching action (action of scratching the injection part by the hind leg) frequency during 30 minutes was measured. The evaluation was carried out in one group of 5 to 7 mice. 4) Data processing: The experiment results were shown by the mean values. The test of the significant difference of the compound applying group to the control group was conducted with Welch's t-test, and p<0.05 was assumed to be significant.

CB1 receptor [3] = target: T2, CB1 receptor (Homo sapiens, UniProt P21554); experiment: Human cannabinoid receptor bonding inhibition test ([3H]CP55940), CB1; assay type: binding; design: expressed in transfected cells; membrane fraction
CB2 receptor [4] = target: T1, CB2 receptor; experiment: Human cannabinoid receptor bonding inhibition test ([3H]CP55940), CB2; assay type: binding; design: expressed in transfected cells; membrane fraction
CB1 receptor [5] = target: T2, CB1 receptor; experiment: cAMP formation inhibition experiment through a cannabinoid receptor (forskolin stimulation), CB1; assay type: cell-based; design: expressed in transfected cells; host or cells: CHO cells
Protocol: A compound being tested was added in the CHO cell which had mad human CB1 or CB2 receptor reveal and incubated for 15 minutes, and then forskolin (the final concentration 4 μM, and manufactured by SIGMA Corp.) was added and the mixture was incubated for 20 minutes. After the reaction had been stopped by adding 1M hydrochloric acid, the amount of cAMP in the supernatant was measured with the use of Cyclic AMP kit (made by the CIS Diagnostic Corp.).

[6] = read-out: Agonist activity (nM) CB1
[7] = [3H]CP55940 0.5 nM, membrane preparation of CHO cells expressing CB1, Ki calculated from IC50, read-out: Binding activity (nM) CB1
[8] = [3H]CP55940 0.5 nM, membrane preparation of CHO cells expressing CB2, Ki calculated from IC50, read-out: Binding activity (nM) CB2

T1 sequence (P34972 whole entry): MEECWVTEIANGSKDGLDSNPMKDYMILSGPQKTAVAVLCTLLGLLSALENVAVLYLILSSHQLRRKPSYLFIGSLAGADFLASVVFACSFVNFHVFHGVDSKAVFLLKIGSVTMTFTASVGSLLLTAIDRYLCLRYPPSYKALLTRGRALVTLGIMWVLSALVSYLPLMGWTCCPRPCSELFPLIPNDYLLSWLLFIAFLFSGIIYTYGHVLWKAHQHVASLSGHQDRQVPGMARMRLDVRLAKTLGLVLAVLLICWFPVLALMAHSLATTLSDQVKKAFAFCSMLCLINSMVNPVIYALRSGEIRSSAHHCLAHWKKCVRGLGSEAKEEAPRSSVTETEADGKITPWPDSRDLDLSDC
T2 sequence (P21554 whole entry): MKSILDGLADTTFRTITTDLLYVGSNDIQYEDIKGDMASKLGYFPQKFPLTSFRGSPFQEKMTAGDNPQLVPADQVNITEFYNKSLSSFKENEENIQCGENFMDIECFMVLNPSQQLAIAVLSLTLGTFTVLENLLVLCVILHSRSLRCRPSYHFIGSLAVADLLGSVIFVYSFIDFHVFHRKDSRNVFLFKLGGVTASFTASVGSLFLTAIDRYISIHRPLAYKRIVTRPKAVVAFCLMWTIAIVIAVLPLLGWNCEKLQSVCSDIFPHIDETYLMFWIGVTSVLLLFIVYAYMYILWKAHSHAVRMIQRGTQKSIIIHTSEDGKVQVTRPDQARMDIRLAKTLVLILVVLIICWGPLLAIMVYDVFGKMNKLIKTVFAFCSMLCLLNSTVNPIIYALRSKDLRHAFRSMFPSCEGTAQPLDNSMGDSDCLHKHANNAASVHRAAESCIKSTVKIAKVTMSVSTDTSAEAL

| Compound | IC50 (CB2 receptor [1]) [nM] | Ki (CB1 receptor [3]) [nM] | Ki (CB2 receptor [4]) [nM] | IC50 (CB1 receptor [5]; [6]) [nM] | inhibition in vivo at 3 % [2] [%] | also measured |
| --- | --- | --- | --- | --- | --- | --- |
| CC(C)(NC(=O)c1cc2c(n(CC3CCCCC3)c1=O)CCCCCC2)C(N)=O [Compound I-002] | 4.4 | 48 | 7.1 | 11 | – | inhibition in vivo at 2.5 % [2]: 68% |
| CCc1c(C)cc(C(=O)N[C@H](C(=O)NC(CO)CO)C(C)(C)C)c(=O)n1CC1CCCCC1 [Compound I-038] | < 2 | 7.1 | < 2 | 34 | 67 | – |
| CC(C)(NC(=O)c1cc2c(n(CC3CCCCC3)c1=O)CCCCCC2)C(=O)N1CCC(NS(=O)(=O)C(C)(C)C)CC1 [Compound I-048] | 17 | 118 | 2.6 | 328 | 58 | – |
| CC(C)(NC(=O)c1cc2c(n(CC3CCCCC3)c1=O)CCCCCC2)C(=O)NCC(N)=O [Compound I-054] | 15 | – | – | 51 | – | inhibition in vivo at 2 % [2]: 63%; Ki (CB1 receptor [3]; [7]): 11 nM; Ki (CB2 receptor [4]; [8]): 6 nM |
| COC(=O)C(C)(C)NC(=O)c1cc2c(n(CC3CCCCC3)c1=O)CCCCCC2 [Compound I-084, methyl 2-[(1-cyclohexylmethyl-2-oxo-1,2,5,6,7,8,9,10-octahydro-cycloocta[b]pyridine-3-carbonyl]-amino}-2-methyl-propionate] | < 2 | < 2 | < 2 | < 2 | – | inhibition in vivo at 0.1 % [2]: 60% |
| CC[C@@H](C)[C@H](NC(=O)c1cc(C)c(C)n(CC2CCCCC2)c1=O)C(=O)OC [Compound I-089] | < 2 | < 2 | < 2 | < 2 | – | inhibition in vivo at 0.5 % [2]: 65% |
| COC(=O)[C@@H](NC(=O)c1cc(C)c(C)n(Cc2ccc(F)cc2)c1=O)C(C)C [Compound I-094] | < 2 | < 2 | < 2 | 9 | – | inhibition in vivo at 0.5 % [2]: 60% |
| COC(=O)[C@@H](NC(=O)c1cc2c(n(Cc3ccc(F)cc3)c1=O)CCCCCC2)C(C)C [Compound I-253] | – | < 2 | < 2 | < 2 | – | inhibition in vivo at 1.5 % [2]: 70% |
| COC(=O)C(C)(C)NC(=O)c1cc2c(n(Cc3ccc(F)cc3)c1=O)CCCCCC2 [Compound I-255] | – | 2.1 | < 2 | < 2 | – | inhibition in vivo at 1.5 % [2]: 93% |
| COC(=O)[C@@H](NC(=O)c1cc2c(n(Cc3ccc(F)cc3)c1=O)CCCCCC2)C(C)(C)C [Compound I-263] | – | < 2 | < 2 | < 2 | – | inhibition in vivo at 1.5 % [2]: 57% |
| COC(=O)[C@@H](NC(=O)c1cc2c(n(CCCC#N)c1=O)CCCCCC2)C(C)C [Compound I-266] | – | 12 | < 2 | 12 | – | inhibition in vivo at 2 % [2]: 64% |
| CCOC(=O)C(C)(C)NC(=O)c1cc2c(n(CC3CCCCC3)c1=O)CCCCCC2 [Compound I-300] | – | < 2 | < 2 | < 2 | – | inhibition in vivo at 0.5 % [2]: 41% |
| CC(C)OC(=O)C(C)(C)NC(=O)c1cc2c(n(CC3CCCCC3)c1=O)CCCCCC2 [Compound I-301] | – | < 2 | < 2 | < 2 | – | inhibition in vivo at 0.5 % [2]: 39% |
| CC(C)(NC(=O)c1cc2c(n(CC3CCCCC3)c1=O)CCCCCC2)C(=O)OCC(O)CO (centres unmarked) [Compound I-305] | – | < 2 | < 2 | < 2 | – | inhibition in vivo at 0.5 % [2]: 61% |
| COCOC(=O)C(C)(C)NC(=O)c1cc2c(n(CC3CCCCC3)c1=O)CCCCCC2 [Compound I-306] | – | < 2 | < 2 | < 2 | – | inhibition in vivo at 0.5 % [2]: 83% |
| O=C(N[C@H](C(=O)O)c1ccccc1)c1cc2c(n(CC3CCCCC3)c1=O)CCCCCC2 [Compound I-402] | – | – | < 2 | – | 59 | IC50 (CB2 receptor [1]; inhibition of forskolin (4 μM)-stimulated cAMP formation, CHO cells expressing human CB2, read-out: Agonist activity (nM) CB2): 5.7 nM; Ki (CB1 receptor [3]; [7]): 34 nM |

| Compound | IC50 (CB2 receptor [1]) [nM] | Ki (CB1 receptor [3]) [nM] | Ki (CB2 receptor [4]) [nM] | IC50 (CB1 receptor [5]; [6]) [nM] | inhibition in vivo at 3 % [2] [%] | also measured |
| --- | --- | --- | --- | --- | --- | --- |
| CCCCn1c(CCC)c(CC)cc(C(=O)NC2(C(=O)O)CCCCC2)c1=O [Compound I-411] | – | – | – | – | – | IC50 (CB2 receptor [1]; read-out: Agonist activity (nM) CB2): 556 nM; inhibition in vivo at 0.5 % [2]: 80%; Ki (CB1 receptor [3]; read-out: Binding activity (nM) CB1): > 2000 nM; Ki (CB2 receptor [4]; read-out: Binding activity (nM) CB2): 382 nM; IC50 (CB1 receptor [5]): > 2000 nM |
| CC(C)CCn1c2c(cc(C(=O)N[C@@H](C(=O)O)c3ccccc3)c1=O)CCCCCC2 [Compound I-424] | 5.9 | – | 3 | – | 62 | Ki (CB1 receptor [3]; [7]): 357 nM; IC50 (CB1 receptor [5]): > 2000 nM |
| O=C(NC(C(=O)O)c1ccco1)c1cc2c(n(CC3CCCCC3)c1=O)CCCCCC2 (centres unmarked) [Compound I-530] | – | 7 | < 2 | 305 | – | inhibition in vivo at 2 % [2]: 74% |
| CC(C)(NC(=O)c1cc2c(n(CC3CCCCC3)c1=O)CCCCCC2)C(=O)Nc1ccc(NS(C)(=O)=O)cc1 [Compound I-533] | < 2 | 21 | < 2 | > 2000 | 73 | – |
| CC(C)CCn1c2c(cc(C(=O)NC(C(=O)O)c3cccs3)c1=O)CCCCCC2 (centres unmarked) [Compound I-551] | < 2 | 50 | 2.2 | 135 | – | inhibition in vivo at 2 % [2]: 51% |
| CC(C)(NC(=O)c1cc2c(n(CC3CCCCC3)c1=O)CCCCCC2)C(=O)NNC(=O)c1cccnc1 [Compound I-556] | 3.5 | 8.1 | < 2 | 357 | 76 | – |
| CC(C)(C)OC(=O)NC1CCN(C(=O)C(C)(C)NC(=O)c2cc3c(n(CC4CCCCC4)c2=O)CCCCCC3)CC1 [Compound I-570] | 12 | 68 | 11 | 709 | 84 | – |
| CC(C)(NC(=O)c1cc2c(n(CC3CCCCC3)c1=O)CCCCCC2)C(=O)N1CCC(NS(C)(=O)=O)CC1 [Compound I-572] | 2.4 | – | – | 397 | – | inhibition in vivo at 1 % [2]: 97%; Ki (CB1 receptor [3]; [7]): 39 nM; Ki (CB2 receptor [4]; [8]): 4.4 nM |
| CC(=O)N1CCN(C(=O)C(C)(C)NC(=O)c2cc3c(n(CC4CCCCC4)c2=O)CCCCCC3)CC1 [Compound I-579] | 27 | – | 7.3 | – | 99 | Ki (CB1 receptor [3]; [7]): 158 nM; IC50 (CB1 receptor [5]): 431 nM |
| CC(C)(NC(=O)c1cc2c(n(CC3CCCCC3)c1=O)CCCCCC2)C(=O)C1CCCC(C(N)=O)N1 (centres unmarked) [Compound I-580] | 48 | 24 | 7.4 | 41 | 98 | – |
| CC(C)(CNCCC(N)=O)NC(=O)c1cc2c(n(CC3CCCCC3)c1=O)CCCCCC2 [Compound I-588] | 5.7 | 41 | 10 | 72 | – | inhibition in vivo at 1 % [2]: 81% |
| CNC(=O)CNC(=O)C(C)(C)NC(=O)c1cc2c(n(CC3CCCCC3)c1=O)CCCCCC2 [Compound I-590] | 2.4 | 66 | 16 | 51 | 75 | – |
| CCNC(=O)C1CCCN(C(=O)C(C)(C)NC(=O)c2cc3c(n(CC4CCCCC4)c2=O)CCCCCC3)C1 (centres unmarked) [Compound I-595] | 30 | – | 9.5 | – | 108 | Ki (CB1 receptor [3]; [7]): 354 nM; IC50 (CB1 receptor [5]): 1210 nM |
| CCS(=O)(=O)NNC(=O)C(C)(C)NC(=O)c1cc2c(n(CC3CCCCC3)c1=O)CCCCCC2 [Compound I-596] | 30 | – | 22 | – | 60 | Ki (CB1 receptor [3]; [7]): 341 nM; IC50 (CB1 receptor [5]): 312 nM |
| CC(C)NC(=O)NC1CCN(C(=O)C(C)(C)NC(=O)c2cc3c(n(CC4CCCCC4)c2=O)CCCCCC3)CC1 [Compound I-599] | 13 | 37 | 4 | 37 | – | inhibition in vivo at 0.5 % [2]: 67% |
| CCOC(=O)C1CCCCC1NC(=O)c1cc2c(n(CCCNC(C)=O)c1=O)CCCCCC2 (centres unmarked) [II-031] | 9.9 | > 2000 | 2.5 | – | – | inhibition in vivo at 2 % [2]: 55% |
